Here are results for five compounds from patent US20250276942A1, “UREASE INHIBITOR FORMULATION FOR USE IN UREA GRANULATION PROCESS” (BASF SE, priority 2021, published 2025).

Data set [1] is described as follows: NxPT recovery on closed storage of urea treated in the melt with urease inhibitor formulations in different solvents (Example 2). The class given is physicochemical. As to conditions: 550 ppm NxPT added to urea melt; closed storage at 30° C. and 40° C.; 2 and 6 months; HPLC DIN_EN_16651. The procedure: 900 g urea+20 mL water were added to a metal pan and heated to 135° C.+1−5° C. under continuous stirring using an overhead stirrer. When all urea was melted, the respective amount of urease inhibitor formulation was added to the urea melt to achieve an NxPT (i.e. NBPT and NPPT) concentration of 550 ppm in urea. After 1 minute of mixing, the molten urea was poured onto an aluminum tray and let cool down at room temperature for 30 min. Afterwards, the urea was broken up in pieces of 1-6 mm and stored in closed polyethylene bottles at 30° C. and 40° C. After 2 and 6 months samples were taken and analyzed for active ingredient concentration. […] The resulting NxPT concentrations from both measurements were averaged.

Data set [2] is described as follows: Flashpoint of materials. In kind it is physicochemical. The method, then:
In a preferred embodiment A2 of the first aspect, the solvent (B) has a flashpoint (determined according to ISO 2719:2016) of more than 130° C., preferably more than 135° C., and in particular more than 140° C.

A short description of data set [3]: NxPT recovery on closed storage at 30° C. of urea coated with amine-containing formulations (Example 5). The class given is physicochemical. The procedure: 3 kg of urea fertilizer granules were added to an ERWEKA mixer (dimensions mix drum: 50 cm diameter, 20 cm high). The mixer was turned on (27 RPM) and the respective amount of urease inhibitor formulation (formulations of NBPT and NPPT in DEG with additional amine were prepared as shown in Table 3 below) was sprayed onto the urea using a syringe to achieve a total NxPT concentration of 550 ppm (137.5 ppm NPPT and 412.5 ppm NBPT) on urea. The fertilizer/urease inhibitor mixture was mixed for 5 minutes. Afterwards, the treated urea was stored in closed polyethylene bottles at 30° C. Samples were taken after 1, 2, 3 and 6 months and analyzed for active ingredient concentration. […] The resulting NxPT concentrations from both measurements were averaged.

For data set [4] the following is noted: granulated urea, 0.055 wt.-% NBPT+NPPT; closed storage 20° C., 30° C., 40° C., up to 12 months; compared to samples containing PEI.
Method: In a test plant, urea was granulated in a fluidized bed granulator having a cylindrical fluidized bed of diameter 40 cm at a temperature of about 108° C. […] The fluidization air flowed at a superficial flow rate of about 2 m/s into the fluidized bed. An overflow was mounted 10 cm above the baseplate at the side wall of the bed. A defined amount (about 30 kg) of urea particles or urea granules having a narrow size distribution was then introduced into the granulator column as seeds for the granulation. The bed with the seeds (about 50 cm deep) was fluidized with hot air at a temperature of about 100° C., and the addition of 96 to 97% by weight urea solution at a temperature of about 135° C. was commenced as soon as the bed had reached the temperature of about 108° C. that was envisaged for the run. From a reservoir tank, the urea solution having a water content of 3-4% by weight was then introduced into the fluidized bed granulator at a rate of 300 kg/h via a spray nozzle that was operated at a temperature of about 140° C. with air, supplied at a rate of 240 kg/h. […]
Samples of the resulting urea granules were stored in closed polyethylene bottles at 20° C., 30° C. and 40° C. Samples were taken after 0, 1, 2, 3, 4, 6, and 12 months and analyzed for active ingredient concentration. From each sample 2×15 g was dissolved in 100 mL water and analyzed using HPLC method DIN_EN_16651. […]

For the compound `OCCOCCO` [DEG, Diethylene glycol], in data set [1], the “stabilizing properties on NxPT during storage of the treated urea, among the tested glycols” value is on record as “best stabilizing properties”. Moreover, in data set [2], the Flashpoint was found to be 142 °C.
Compound `CC(O)CN(CCO)CCO` (stereo not shown) [DEIPA, Diethanol isopropanol amine] returned a Flashpoint in data set [2] of 191 °C. Moreover, the “performance in urease inhibitor formulations applied as coating to urea” value in data set [3] (550 ppm NxPT sprayed onto urea granules, closed storage 30° C., 1, 2, 3 and 6 months) is “same performance”. In addition, the stabilizing effect entry in data set [3] (amine in DEG formulation of NBPT and NPPT on urea) is reported as “stabilizing effect”. Also, the “storage stability in urea” value in data set [4] is recorded as “higher storage stability”.
Take `CC(O)CO` (stereo not shown) [PG, Propylene glycol]: the Flashpoint in data set [2] is 99 °C.
In data set [2], `CC(O)C(=O)N(C)C` (stereo not shown) [Agnique AMD 3L, N,N-Dimethyl lactamide] registered a Flashpoint of 103 °C.
As to `C[S+](C)[O-]` [DMSO, Dimehtyl sulfoxide], the “ranking of the stabilizing properties of the tested solvents” value in data set [1] is “DEG>DPG>PG>N,N-Agnique AMD 3L>DMSO”. The same compound gave a Flashpoint in data set [2] of 95 °C.
